# Measured values as given in patent publication US20150284347A1, “NEW BENZENE SULFONAMIDE THIAZOLE COMPOUNDS” (INSERM (INSTITUT NATIONAL DE LA SANTÉ ET DE LA RECHERCHE …, priority 2012, published 2015).
# Columns and labels:
# prostate cells LNCAP = assay: Trypan blue cell viability, LNCAP; assay type: cell-based; settings: 10 μM, trypan blue exclusion, FIG. 1
# Experimental: (§1) Cell viability was assessed by measuring the number of cells alive in samples of two different kind of prostate cells, respectively noted LNCAP and PC3, of breast cells noted MCF7, of colon cells noted HT29, of metastatic melanoma cell lines A375 and of melanoma cells from patients noted GIC. The measure of cell viability as performed by cell counting using the trypan blue exclusion method. Results were expressed as the percentage of cells alive relatively to the number of living cells in the presence of DMSO, which corresponds to the negative control associated to the 100% value. Cells were seeded in 6-well plates (60000 cells/well), depleted and incubated with compounds for the times indicated. Then cells were detached in the presence of 2000 of […] (Thermo) and 2 ml of RPMI 1640 Glutamax (Gibco) was added to the cell solution. 100 of this solution was stained for 1 minute with 100 of 0.4% trypan blue before counting with a Malassez chamber. The effect of compound on cell viability was studied on different types of cells. […] Cancer cells from prostate, breast, colon and melanoma A375 came from cell lines cultures. […] Results are expressed as percentage of cells alive relatively to the number of living cells in the presence of DMSO, which corresponds to the negative control associated to the 100% value. […]
# prostate cells PC3 = assay: Trypan blue cell viability, PC3; assay type: cell-based; settings: 10 μM, PC3, trypan blue exclusion, FIG. 1
# Experimental: as §1
# normal human melanocytes = assay: Trypan blue cell viability, normal melanocytes; assay type: cell-based; settings: 10 μM, FIG. 2
# Experimental: Primary cell cultures of human normal melanocytes were prepared from human foreskin. In order to determine the effect of compound HA15 on cell viability of melanocytes and fibroblasts, 10 μM of ciglitazone or 10 μM of HA15 were added to the cell samples. The measure of cell viability was performed in the same way as for FIG. 1. Results are expressed as the percentage of living cells relatively to the number of living cells in the presence of DMSO, as for FIG. 1. Normal human melanocytes (NHM) prepared from foreskins of newborns were grown under 5% CO2 at 37° C. in MCDB 153 (Sigma) supplemented with 2% FCS, bovine pituitary extract (10 μg/ml), PMA (8 nM), bFGF (ing/nil), insulin (5 μg/ml), hydrocortisone (0.5 μg/ml), forskolin (10 μM), gentamicin (20 μg/ml), penicillin/streptomycin/amphotericin B (100 U/ml) (Invitrogen). Cells were seeded in 6-well plates (60000 cells/well), depleted and incubated with compounds for the times indicated. Then cells were detached in the presence of 2000 of […] (Thermo) and 2 ml of RPMI 1640 Glutamax (Gibco) was added to the cell solution. 100 of this solution was stained for 1 minute with 100 of 0.4% trypan blue before counting with a Malassez chamber. The effect of compound HA15 on cell viability of melanocytes and fibroblasts was studied, as illustrated by FIG. 2. Primary cell cultures of human normal melanocytes were prepared from human foreskin. […]
# A375 melanoma cells = assay: A375 melanoma xenograft tumor development in nude mice; assay type: in vivo; settings: 0.7 mg/mouse/day over 24 days, athymic nude mice
# Experimental: To assess a potential antineoplastic effect of (HA15) and (SR50) in vivo, A375 melanoma cells (2.5×10^6) were injected subcutaneously in 6-week-old female athymic nude mice and treated 5 days later by injection of vehicle (labrafil) or different compounds such as PLX4032, (HA15) and (SR50) (0.7 mg/mouse/day) over a period of 24 days. Inhibitory effect is expressed as the tumor volume (mm^3) on day 8, 11, 15, 18, 22 and 24.
# Athymic BALB/C nu/nu mice (Harlan) were used. The animals were 6 weeks old and weighed between 20 and 25 g. The mice were housed in the animal's C3M in a 12 h/12 h cycle. The animals received water and food ad libitum. Mice were first acclimated for one week and then injected with A375 cells (2.5 million cells in 200 μl of PBS) subcutaneously into the right and left sides. Treatment was started eight days after injection of cancer cells (when tumors were visible). The various compounds were diluted in a mixture of Labrafil (90%) (Gattefosse), Tween 80 (1%) and N,N-Dimethylacetamide (9%). Five groups of six mice treated every day intraperitoneally with 0.7 mg/day of PLX4032, SR44 (HA15), SR47 (HA32), SR50 (JG25) or with the mixture of Labrafil in control were defined. Three times a week the tumor size was measured using a caliper. […]
smiles,measurement,setting,value
"CC(=O)Nc1nc(-c2cccc(NS(=O)(=O)c3cccc4c(N(C)C)cccc34)c2)cs1 [HA15, N-(4-(3-(5-(dimethylamino)naphthalene-1-sulfonamido)phenyl)thiazol-2-yl)acetamide]",cell viability (cells alive relative to DMSO),prostate cells LNCAP,viability greatly reduced
same,cell viability (cells alive relative to DMSO),prostate cells PC3,viability greatly reduced
same,cell viability of normal melanocytes,normal human melanocytes,not affected
same,ability of cells to develop visible tumors,A375 melanoma cells,markedly attenuated
